According to publication PMC2847018 (Biochemical pharmacology, 2010):
pIC50: −log10 of the molar value. “Also recorded” adds a separate entry of the source. Where a name gives a salt, the structure may show the parent alone. Read-outs that look alike come from different tables or passages of the source.

Columns and labels:
[1] = system: placental carbonyl-reducing enzymes (human placental microsomes); format: biochemical; conditions: bupropion 40 μM, pooled placental microsomes, 40 min 37°C; for effect on formation of threo- and erythrohydrobupropion: inhibitor 500 μM
[2] = Kinetics of bupropion reduction by human placental microsomes; format: in vitro ADME; conditions: Mean±S.D. of HPM 1-6
11β-HSD1 = 11β-HSD1 ref 44; cited from earlier work
[3] = system: placental carbonyl-reducing enzymes (human placental microsomes); test: Type of inhibition and Ki of 18β-GA on bupropion reduction; format: biochemical; conditions: Lineweaver-Burk plot: apparent Km increased, Vmax not affected

O=C(O)c1ccccc1Nc1cccc(C(F)(F)F)c1 [flufenamic acid]
inhibition of formation of threo- and erythrohydrobupropion ([1]; inhibitor 4 μM): 50%

CCC1(CC)C(=O)NC(=O)NC1=O [barbital]
effect on formation of threo- and erythrohydrobupropion [1]: did not inhibit

CC1=CC(=O)c2ccccc2C1=O [menadione]
inhibition of formation of threo- and erythrohydrobupropion ([1]; inhibitor 100 μM): 70%

CC(NC(C)(C)C)C(=O)c1cccc(Cl)c1 (stereo not shown) [bupropion, Bupropion hydrochloride]
Vmax, erythrohydrobupropion formation [2]: 3.1±1.2 picomoles per minute per milligram of protein | Vmax, threohydrobupropion formation [2]: 18.6±6.1 picomoles per minute per milligram of protein

Cc1cn[nH]c1 [4-methylpyrazole]
effect on formation of threo- and erythrohydrobupropion [1]: did not inhibit

CC1(C)[C@@H](O)CC[C@]2(C)[C@H]3C(=O)C=C4[C@@H]5C[C@@](C)(C(=O)O)CC[C@]5(C)CC[C@@]4(C)[C@]3(C)CC[C@@H]12 [18β-GA, 18β-glycyrrhetinic acid]
inhibition of formation of threo- and erythrohydrobupropion ([1]; inhibitor 0.1 μM): 80% | pIC50 (11β-HSD1): […] | type of inhibition of bupropion reduction [3]: competitive

O=c1oc2ccccc2c(O)c1Cc1c(O)c2ccccc2oc1=O [dicumarol]
effect on formation of threo- and erythrohydrobupropion [1]: did not inhibit; also recorded: did not affect
